# Reference: the supplement of paper PMC4862054
# Test system: CAL-120
# Test: normalised response (% of control), CellTiter-Glo; higher = more viable cells (100 = DMSO, 0 = benzethonium chloride kill control)
# Details: incubation time: 72 h
# In short: (§1)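 Breast cancer cell lines were exposed for 72 h in 384-well plates to compound at 5 concentrations, 10-fold apart, covering a 10,000-fold range fixed for each compound. Plates were read for CellTox Green fluorescence and CellTiter-Glo luminescence and normalised to 0.1 % DMSO (100) and a positive kill control (0). Each value is the normalised signal at one concentration of the series.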
row,Compound,normalised response [%]
1,Cc1ccc(-n2nc(C(C)(C)C)cc2NC(=O)Nc2ccc(OCCN3CCOCC3)c3ccccc23)cc1 [Doramapimod] (100 nM),99.4
2,C[C@]12CC[C@@H]3c4ccc(O)cc4C[C@@H](CCCCCCCCC[S+]([O-])CCCC(F)(F)C(F)(F)F)[C@H]3[C@@H]1CC[C@@H]2O (some centres not stated) [Fulvestrant] (10 nM),103
3,N[C@@H](CSC(c1ccccc1)(c1ccccc1)c1ccccc1)C(=O)O [S-trityl-L-cysteine] (400 nM),104
4,CCC(C)(C)C(=O)O[C@H]1C[C@@H](C)C=C2C=C[C@H](C)[C@H](CC[C@@H]3C[C@@H](O)CC(=O)O3)[C@H]21 [Simvastatin] (100 nM),100
5,Cn1c(CCCC(=O)O)nc2cc(N(CCCl)CCCl)ccc21 [Bendamustine] (100 nM),103
6,C#Cc1cccc(Nc2ncnc3cc(OCCOC)c(OCCOC)cc23)c1 [Erlotinib] (100 nM),98.1
7,O=C(CCCCCCC(=O)Nc1ccc([C@H]2O[C@@H](CSc3nc(-c4ccccc4)c(-c4ccccc4)o3)C[C@@H](c3ccc(CO)cc3)O2)cc1)NO [Tubacin] (100 nM),112
8,CCC1(c2ccc(N)cc2)CCC(=O)NC1=O (configuration not stated) [Aminoglutethimide] (100 nM),108

# Test system: MDA-MB-468
# Test: as above
# Details: incubation time: 72 h
# In short: as §1
row,Compound,normalised response [%]
1,Cc1ccc(-n2nc(C(C)(C)C)cc2NC(=O)Nc2ccc(OCCN3CCOCC3)c3ccccc23)cc1 [Doramapimod] (100 nM),89.6
2,C[C@]12CC[C@@H]3c4ccc(O)cc4C[C@@H](CCCCCCCCC[S+]([O-])CCCC(F)(F)C(F)(F)F)[C@H]3[C@@H]1CC[C@@H]2O (some centres not stated) [Fulvestrant] (10 nM),108
3,N[C@@H](CSC(c1ccccc1)(c1ccccc1)c1ccccc1)C(=O)O [S-trityl-L-cysteine] (400 nM),105
4,CCC(C)(C)C(=O)O[C@H]1C[C@@H](C)C=C2C=C[C@H](C)[C@H](CC[C@@H]3C[C@@H](O)CC(=O)O3)[C@H]21 [Simvastatin] (100 nM),93.7
5,Cn1c(CCCC(=O)O)nc2cc(N(CCCl)CCCl)ccc21 [Bendamustine] (100 nM),106
6,C#Cc1cccc(Nc2ncnc3cc(OCCOC)c(OCCOC)cc23)c1 [Erlotinib] (100 nM),90.8
7,O=C(CCCCCCC(=O)Nc1ccc([C@H]2O[C@@H](CSc3nc(-c4ccccc4)c(-c4ccccc4)o3)C[C@@H](c3ccc(CO)cc3)O2)cc1)NO [Tubacin] (100 nM),95.3
8,CCC1(c2ccc(N)cc2)CCC(=O)NC1=O (configuration not stated) [Aminoglutethimide] (100 nM),100

# Test system: HCC1599
# Test: as above
# Details: incubation time: 72 h
# In short: as §1
row,Compound,normalised response [%]
1,Cc1ccc(-n2nc(C(C)(C)C)cc2NC(=O)Nc2ccc(OCCN3CCOCC3)c3ccccc23)cc1 [Doramapimod] (100 nM),93.7
2,C[C@]12CC[C@@H]3c4ccc(O)cc4C[C@@H](CCCCCCCCC[S+]([O-])CCCC(F)(F)C(F)(F)F)[C@H]3[C@@H]1CC[C@@H]2O (some centres not stated) [Fulvestrant] (10 nM),108
3,N[C@@H](CSC(c1ccccc1)(c1ccccc1)c1ccccc1)C(=O)O [S-trityl-L-cysteine] (400 nM),112
4,CCC(C)(C)C(=O)O[C@H]1C[C@@H](C)C=C2C=C[C@H](C)[C@H](CC[C@@H]3C[C@@H](O)CC(=O)O3)[C@H]21 [Simvastatin] (100 nM),89.2
5,Cn1c(CCCC(=O)O)nc2cc(N(CCCl)CCCl)ccc21 [Bendamustine] (100 nM),99.1
6,C#Cc1cccc(Nc2ncnc3cc(OCCOC)c(OCCOC)cc23)c1 [Erlotinib] (100 nM),102
7,O=C(CCCCCCC(=O)Nc1ccc([C@H]2O[C@@H](CSc3nc(-c4ccccc4)c(-c4ccccc4)o3)C[C@@H](c3ccc(CO)cc3)O2)cc1)NO [Tubacin] (100 nM),85.2
8,CCC1(c2ccc(N)cc2)CCC(=O)NC1=O (configuration not stated) [Aminoglutethimide] (100 nM),90.5

# Test system: MDA-MB-453
# Test: as above
# Details: incubation time: 72 h
# In short: as §1
row,Compound,normalised response [%]
1,Cc1ccc(-n2nc(C(C)(C)C)cc2NC(=O)Nc2ccc(OCCN3CCOCC3)c3ccccc23)cc1 [Doramapimod] (100 nM),99.4
2,C[C@]12CC[C@@H]3c4ccc(O)cc4C[C@@H](CCCCCCCCC[S+]([O-])CCCC(F)(F)C(F)(F)F)[C@H]3[C@@H]1CC[C@@H]2O (some centres not stated) [Fulvestrant] (10 nM),103
3,N[C@@H](CSC(c1ccccc1)(c1ccccc1)c1ccccc1)C(=O)O [S-trityl-L-cysteine] (400 nM),104
4,CCC(C)(C)C(=O)O[C@H]1C[C@@H](C)C=C2C=C[C@H](C)[C@H](CC[C@@H]3C[C@@H](O)CC(=O)O3)[C@H]21 [Simvastatin] (100 nM),95.5
5,Cn1c(CCCC(=O)O)nc2cc(N(CCCl)CCCl)ccc21 [Bendamustine] (100 nM),125
6,C#Cc1cccc(Nc2ncnc3cc(OCCOC)c(OCCOC)cc23)c1 [Erlotinib] (100 nM),109
7,O=C(CCCCCCC(=O)Nc1ccc([C@H]2O[C@@H](CSc3nc(-c4ccccc4)c(-c4ccccc4)o3)C[C@@H](c3ccc(CO)cc3)O2)cc1)NO [Tubacin] (100 nM),96.1
8,CCC1(c2ccc(N)cc2)CCC(=O)NC1=O (configuration not stated) [Aminoglutethimide] (100 nM),103

# Test system: BT-474
# Test: as above
# Details: incubation time: 72 h
# In short: as §1
row,Compound,normalised response [%]
1,Cc1ccc(-n2nc(C(C)(C)C)cc2NC(=O)Nc2ccc(OCCN3CCOCC3)c3ccccc23)cc1 [Doramapimod] (100 nM),94.2
2,C[C@]12CC[C@@H]3c4ccc(O)cc4C[C@@H](CCCCCCCCC[S+]([O-])CCCC(F)(F)C(F)(F)F)[C@H]3[C@@H]1CC[C@@H]2O (some centres not stated) [Fulvestrant] (10 nM),104
3,N[C@@H](CSC(c1ccccc1)(c1ccccc1)c1ccccc1)C(=O)O [S-trityl-L-cysteine] (400 nM),102
4,CCC(C)(C)C(=O)O[C@H]1C[C@@H](C)C=C2C=C[C@H](C)[C@H](CC[C@@H]3C[C@@H](O)CC(=O)O3)[C@H]21 [Simvastatin] (100 nM),97.5
5,Cn1c(CCCC(=O)O)nc2cc(N(CCCl)CCCl)ccc21 [Bendamustine] (100 nM),104
6,C#Cc1cccc(Nc2ncnc3cc(OCCOC)c(OCCOC)cc23)c1 [Erlotinib] (100 nM),98.3
7,O=C(CCCCCCC(=O)Nc1ccc([C@H]2O[C@@H](CSc3nc(-c4ccccc4)c(-c4ccccc4)o3)C[C@@H](c3ccc(CO)cc3)O2)cc1)NO [Tubacin] (100 nM),94.8
8,CCC1(c2ccc(N)cc2)CCC(=O)NC1=O (configuration not stated) [Aminoglutethimide] (100 nM),99.1

# Test system: MDA-MB-436
# Test: as above
# Details: incubation time: 72 h
# In short: as §1
row,Compound,normalised response [%]
1,Cc1ccc(-n2nc(C(C)(C)C)cc2NC(=O)Nc2ccc(OCCN3CCOCC3)c3ccccc23)cc1 [Doramapimod] (100 nM),100
2,C[C@]12CC[C@@H]3c4ccc(O)cc4C[C@@H](CCCCCCCCC[S+]([O-])CCCC(F)(F)C(F)(F)F)[C@H]3[C@@H]1CC[C@@H]2O (some centres not stated) [Fulvestrant] (10 nM),103
3,N[C@@H](CSC(c1ccccc1)(c1ccccc1)c1ccccc1)C(=O)O [S-trityl-L-cysteine] (400 nM),98.9
4,CCC(C)(C)C(=O)O[C@H]1C[C@@H](C)C=C2C=C[C@H](C)[C@H](CC[C@@H]3C[C@@H](O)CC(=O)O3)[C@H]21 [Simvastatin] (100 nM),99.7
5,Cn1c(CCCC(=O)O)nc2cc(N(CCCl)CCCl)ccc21 [Bendamustine] (100 nM),97.6
6,C#Cc1cccc(Nc2ncnc3cc(OCCOC)c(OCCOC)cc23)c1 [Erlotinib] (100 nM),102
7,O=C(CCCCCCC(=O)Nc1ccc([C@H]2O[C@@H](CSc3nc(-c4ccccc4)c(-c4ccccc4)o3)C[C@@H](c3ccc(CO)cc3)O2)cc1)NO [Tubacin] (100 nM),96.8
8,CCC1(c2ccc(N)cc2)CCC(=O)NC1=O (configuration not stated) [Aminoglutethimide] (100 nM),98.3

# Test system: MCF-10A
# Test: as above
# Details: incubation time: 72 h
# In short: as §1
row,Compound,normalised response [%]
1,Cc1ccc(-n2nc(C(C)(C)C)cc2NC(=O)Nc2ccc(OCCN3CCOCC3)c3ccccc23)cc1 [Doramapimod] (100 nM),85.3
2,C[C@]12CC[C@@H]3c4ccc(O)cc4C[C@@H](CCCCCCCCC[S+]([O-])CCCC(F)(F)C(F)(F)F)[C@H]3[C@@H]1CC[C@@H]2O (some centres not stated) [Fulvestrant] (10 nM),109
3,N[C@@H](CSC(c1ccccc1)(c1ccccc1)c1ccccc1)C(=O)O [S-trityl-L-cysteine] (400 nM),92.4
4,CCC(C)(C)C(=O)O[C@H]1C[C@@H](C)C=C2C=C[C@H](C)[C@H](CC[C@@H]3C[C@@H](O)CC(=O)O3)[C@H]21 [Simvastatin] (100 nM),111
5,Cn1c(CCCC(=O)O)nc2cc(N(CCCl)CCCl)ccc21 [Bendamustine] (100 nM),108
6,C#Cc1cccc(Nc2ncnc3cc(OCCOC)c(OCCOC)cc23)c1 [Erlotinib] (100 nM),65
7,O=C(CCCCCCC(=O)Nc1ccc([C@H]2O[C@@H](CSc3nc(-c4ccccc4)c(-c4ccccc4)o3)C[C@@H](c3ccc(CO)cc3)O2)cc1)NO [Tubacin] (100 nM),106
8,CCC1(c2ccc(N)cc2)CCC(=O)NC1=O (configuration not stated) [Aminoglutethimide] (100 nM),94.1

# Test system: HCC1143
# Test: as above
# Details: incubation time: 72 h
# In short: as §1
row,Compound,normalised response [%]
1,Cc1ccc(-n2nc(C(C)(C)C)cc2NC(=O)Nc2ccc(OCCN3CCOCC3)c3ccccc23)cc1 [Doramapimod] (100 nM),97.1
2,C[C@]12CC[C@@H]3c4ccc(O)cc4C[C@@H](CCCCCCCCC[S+]([O-])CCCC(F)(F)C(F)(F)F)[C@H]3[C@@H]1CC[C@@H]2O (some centres not stated) [Fulvestrant] (10 nM),105
3,N[C@@H](CSC(c1ccccc1)(c1ccccc1)c1ccccc1)C(=O)O [S-trityl-L-cysteine] (400 nM),102
4,CCC(C)(C)C(=O)O[C@H]1C[C@@H](C)C=C2C=C[C@H](C)[C@H](CC[C@@H]3C[C@@H](O)CC(=O)O3)[C@H]21 [Simvastatin] (100 nM),105
5,Cn1c(CCCC(=O)O)nc2cc(N(CCCl)CCCl)ccc21 [Bendamustine] (100 nM),111
6,C#Cc1cccc(Nc2ncnc3cc(OCCOC)c(OCCOC)cc23)c1 [Erlotinib] (100 nM),102
7,O=C(CCCCCCC(=O)Nc1ccc([C@H]2O[C@@H](CSc3nc(-c4ccccc4)c(-c4ccccc4)o3)C[C@@H](c3ccc(CO)cc3)O2)cc1)NO [Tubacin] (100 nM),96
8,CCC1(c2ccc(N)cc2)CCC(=O)NC1=O (configuration not stated) [Aminoglutethimide] (100 nM),95.3

# Test system: HCC1937
# Test: as above
# Details: incubation time: 72 h
# In short: as §1
row,Compound,normalised response [%]
1,Cc1ccc(-n2nc(C(C)(C)C)cc2NC(=O)Nc2ccc(OCCN3CCOCC3)c3ccccc23)cc1 [Doramapimod] (100 nM),89.9
2,C[C@]12CC[C@@H]3c4ccc(O)cc4C[C@@H](CCCCCCCCC[S+]([O-])CCCC(F)(F)C(F)(F)F)[C@H]3[C@@H]1CC[C@@H]2O (some centres not stated) [Fulvestrant] (10 nM),92.8
3,N[C@@H](CSC(c1ccccc1)(c1ccccc1)c1ccccc1)C(=O)O [S-trityl-L-cysteine] (400 nM),98.2
4,CCC(C)(C)C(=O)O[C@H]1C[C@@H](C)C=C2C=C[C@H](C)[C@H](CC[C@@H]3C[C@@H](O)CC(=O)O3)[C@H]21 [Simvastatin] (100 nM),99
5,Cn1c(CCCC(=O)O)nc2cc(N(CCCl)CCCl)ccc21 [Bendamustine] (100 nM),105
6,C#Cc1cccc(Nc2ncnc3cc(OCCOC)c(OCCOC)cc23)c1 [Erlotinib] (100 nM),99
7,O=C(CCCCCCC(=O)Nc1ccc([C@H]2O[C@@H](CSc3nc(-c4ccccc4)c(-c4ccccc4)o3)C[C@@H](c3ccc(CO)cc3)O2)cc1)NO [Tubacin] (100 nM),92.8
8,CCC1(c2ccc(N)cc2)CCC(=O)NC1=O (configuration not stated) [Aminoglutethimide] (100 nM),94.7
